Source: patent publication US8889638B2, “Stimulus-triggered prodrugs” (The Regents of the University of California, priority 2010, dated 2014)

Assays:
[1] = Cleavage of sulfonate ester PZBGs and proMMPi by H2O2 (UV-Vis, rate constant, HPLC); assay type: physicochemical; settings: 50 μM in HEPES buffer, room temperature
Procedure: (§1) Absorption spectra of compounds were taken on a Perkin-Elmer Lambda 25 UV-Visible Spectrophotometer. To a 1.0 mL solution at 0.05 mM concentration of each compound in HEPES buffer (50 mM, pH 7.5) was added H2O2 (10 μL, 0.09M in HEPES) and absorption spectra were monitored over time at room temperature. Hydrolytic stability was measured by monitoring each sample in HEPES buffer over a 24 hour time period.
The pseudo-first order rate constant was calculated following literature procedure. To a 1.0 mL solution of compounds PZBG-1a, PZBG-1b, PZBG-1e, PZBG-5a, and PZBG-5b in HEPES buffer at 50 μM was added H2O2 to final concentrations of 150 μM, 250 μM, 500 μM, 750 μM, and 900 μM. Spectra were monitored over 15-30 min at room temperature with at least 50 spectra recorded at every concentration. The change in absorption at 298 nm for PZBG-1a and PZBG-1b were monitored, while the change in absorption at 288 nm was recorded for PZBG-1e, and 310 nm for PZBG-5a and PZBG-5b. The rate constant (kobs) was found from the linear slope of ln [(A−AZBG)/(Ao−AZBG)] vs. time where AZBG is the absorbance of a 50 μM sample of the ZBG or full-length inhibitor and AO is the initial absorbance of PZBG-1a, PZBG-1b, PZBG-1e, PZBG-5a, and PZBG-5b. The rate of conversion was determined from the slope of the line of kobs vs. [H2O2].
Analytical HPLC was performed on a HP Series 1050 system equipped with a Vydac® C18 reverse phase column (218 TP, 250×4.6 mm, 5 μm). […] Starting with 95% A and 5% B, an […] gradient was run for 15 min to a final solvent mixture of 5% A and 95% B, which was held for 5 min before ramping back down to 95% A and 5% B in 2 min and holding for an additional 4 min. Compounds ZBG-1a and PZBG-1a were prepared in HEPES buffer (50 mM, pH 7.5) at a concentration of 1 mM and retention times were determined. To evaluate cleavage by H2O2, a 1 mM solution of PZBG-1a in HEPES buffer was reacted with a 20-fold excess of H2O2 before analyzing under identical HPLC conditions as before.

[2] = Hydrolytic stability of sulfonate esters in HEPES buffer; assay type: physicochemical; settings: in 6 h
Procedure: as §1

[3] = Solubility in buffered solution / water; assay type: physicochemical; settings: relative to the parent analog
[4] = Cleavage of boronic ester/acid protected compounds by H2O2 (UV-Vis, rate constant, HPLC); assay type: physicochemical; settings: for k, pseudo first-order rate constants calculated with an excess of H2O2: 50 μM in HEPES buffer pH 7.5, room temperature; for rate constant of conversion with an excess of H2O2: pseudo-first order conditions, HEPES buffer
Procedure: (§2) Absorption spectra of compounds B1-B16 were taken on a Perkin-Elmer Lambda 25 UV-visible spectrophotometer. To a 1.0 mL solution at 0.05 mM concentration in HEPES buffer (50 mM, pH 7.5) was added H2O2 (10 uL (0.09 M) in HEPES for compounds B1-B12 and B14-B16, 10 uL (0.9 M) in HEPES for compound B3, and 2.8 uL (0.09 M) in HEPES for compound B13). Spectra were monitored over time at room temperature. Absorption spectra of compounds B17-B21 were taken on a Perkin-Elmer Lambda 25 UV-visible spectrophotometer. To a 1.0 mL solution at 0.05 mM concentration of compounds 1-7 in HEPES buffer (50 mM, pH=7.5) was added H2O2 (10 uL, 0.09 M in HEPES) or KO2 (0.10 mM) with catalase (5 U). Hydrolytic stability was measured by monitoring samples of B19-B21 in HEPES buffer for a 24 h time period. Spectra were monitored over time at room temperature.
The pseudo-first order rate constant was calculated by monitoring the absorption spectra over time in the presence of excess hydrogen peroxide. To a 1.0 mL solution of compounds B1-B3 and B10-B14 in HEPES buffer (50 mM, pH 7.5) at 50 μM was added H2O2 to final concentrations of 150 μM, 250 μM, 500 μM, 750 μM, and 900 μM. Spectra were monitored over 15-30 min at room temperature with at least 50 spectra recorded. The change in absorption at 302 nm for B1-B3, 272 nm for B10, 312 nm for B11, 268 for B12, 306 nm for B13, and 303 nm for B14 were monitored. For compounds B1-B3 and B10-B11, the rate constant (kobs) was found from monitoring the appearance of the monitored absorption peak by plotting the linear slope of ln [(A∞−At)/(A∞)] vs. time (where A∞ is the absorbance of a 50 μM sample of the methyl salicylate for B1-B3, maltol for B10, and 1,2-HOPO for B11). For compounds B12-B14 the rate constant (kobs) was found from monitoring the disappearance of the monitored absorption peak by plotting the linear slope of ln [(A−AZBG)/(A0−AZBG)] vs. time (where AZBG is the absorbance of a 50 μM sample of the ZBG and A0 is the initial absorbance of […]).^3 The rate of conversion was determined from the slope of the line of kobs vs. [H2O2]. The pseudo-first order rate constant was calculated following literature procedure.^[15] To a 1.0 mL solution of compounds B19-B21 in HEPES buffer at 50 μM was added H2O2 to final concentrations of 150 μM, 250 μM, 500 μM, 750 μM, and 900 μM. Spectra were monitored over 15-30 min at room temperature with at least 50 spectra recorded. The change in absorption at 292 nm for B19 and 252 nm for B20 and B21 were monitored. The rate constant (kobs) was found from the linear slope of ln [(A−AZBG)/(A0−AZBG)] vs. time (where AZBG is the absorbance of a 50 μM sample of the ZBG and A0 is the initial absorbance of B19-B21). The rate of conversion was determined from the slope of the line of kobs vs. [H2O2].
Analytical HPLC was performed on a HP Series 1050 system equipped with a Vydac® C18 reverse phase column (218 TP, 250×4.6 mm, 5 μm). […] Starting with 95% A and 5% B, an […] gradient was run for 15 min to a final solvent mixture of 5% A and 95% B, which was held for 5 min before ramping back down to 95% A and 5% B in 2 min and holding for an additional 4 min. Compounds were prepared in HEPES buffer (50 mM, pH 7.5) at a concentration of 1 mM. Retention times of compounds were determined under identical HPLC conditions prior to and after reaction with H2O2. LC-MS(+) was performed on compounds B6, B15 and B16 to confirm cleavage of the boronic ester to the phenolic moiety.

[5] = Hydrolytic stability of boronic ester compounds in HEPES buffer; assay type: physicochemical; settings: 24 h time period
Procedure: as §2

[6] = Stability of protected ZBGs towards KO2 with catalase; assay type: physicochemical; settings: KO2 0.10 mM and catalase 5 U, 60 min
Procedure: as §2

[7] = biological target: T1, MMP-9 (catalytic domain, human, recombinant) (Homo sapiens, UniProt P14780); experiment: MMP-9 inhibition assay of boronic ester proinhibitors (IC50; activation with H2O2); assay type: biochemical; settings: active inhibitor; read-out: IC50 against MMP-9
T1 construct: MMP-9 (catalytic domain, human, recombinant); purchased BIOMOL International
Procedure: MMP-9 (catalytic domain, human, recombinant) and MMP-12 (catalytic domain, human, recombinant) were purchased from Enzo Life Sciences. The assays were carried out in 96-well plates using a Bio-Tek Flx 800 plate reader. IC50 values were obtained for proinhibitors B17 and B18 against MMP-9 and MMP-12. Serial dilutions of the compounds dissolved in DMSO were incubated at 37° C. for 30 minutes with 20 μL of the appropriate MMP (0.45 U/mL for MMP-9 and 0.35 U/mL for MMP-12) in MMP assay buffer (50 mM HEPES, 10 mM CaCl2, 0.10% Brij-35, pH 7.5), for a total volume of 99 pt. The reaction was initiated by the addition of 1 μL (400 μM) of the fluorescent substrate (Mca-Pro-Leu-Gly-Leu-Dpa-Ala-Arg-NH2 where Mca=(7-methoxycoumarin-4-yl)-acetyl and Dpa=N-3-(2,4-dinitrophenyl)-L-α-β-diaminopropionyl)) and kinetic activity was measured every minute for 20 min with excitation and emission wavelengths at 335 nm and 405 nm, respectively. Measurements were performed in duplicate. The percent inhibition was plotted versus the inhibitor concentration. A linear fit of the data for each experiment gives the IC50 value of the inhibitor where y=50%.
MMP activity in the presence of H2O2 was evaluated with both MMP-9 and MMP-12 with 1 h of activation at concentrations close to their IC50 values. Using the calculated rate constants for the protected ZBGs B19 and B20, it was determined that 1 h of activation time for each proinhibitor with 100 μM H2O2 will provide enough 1,2-HOPO-2 or PY-2 to inhibit the MMPs at 50%. For example, for proinhibitor B17 with MMP-9, if the rate=k[B17][H2O2] and k=3.9 M^−1s^−1, [B17]=10 μM, and [H2O2]=100 μM, the rate of conversion would be 3.9×10^−9 M/s. Therefore, activation for 1 h would release 14 μM 1,2-HOPO-2, or enough inhibitor to provide approximately 50% inhibition of MMP-9 (IC50 value for 1,2-HOPO-2 against MMP-9 is ˜6 μM).
In each well, 1 μL of proinhibitors B17 and B18 and the inhibitors 1,2-HOPO-2 and PY-2 in DMSO (1 mM for MMP-9 or 5 μM for MMP-12) were incubated for 1 h at 37° C. with 10 μL H2O2 (1 mM in HEPES buffer, pH 7.5) in MMP assay buffer for a total volume of 79 pt. […] After activation of the proinhibitors, 20 μL of the appropriate MMP (0.45 U/mL for MMP-9 and 0.35 U/mL for MMP-12) was added and incubated for an additional 30 min. The reaction was initiated by the addition of 1 pt (400 μM) of the fluorescent substrate and kinetic activity was measured every minute for 20 min with excitation and emission wavelengths at 335 nm and 405 nm, respectively. Enzyme activity with inhibitor was calculated with respect to the control experiment (no inhibitor present). Measurements were performed in duplicate in two independent experiments.

MMP-3 = MMP-3 (Homo sapiens, UniProt P08254); settings: read-out: IC50 against MMP-3; cited from earlier work
MMP-8 = MMP-8 (Homo sapiens, UniProt P22894); settings: read-out: IC50 against MMP-8; cited from earlier work
MMP-12 = MMP-12 (Homo sapiens, UniProt P39900); settings: read-out: IC50 against MMP-12; cited from earlier work
Chain of MMP-12 (P39900 106-470): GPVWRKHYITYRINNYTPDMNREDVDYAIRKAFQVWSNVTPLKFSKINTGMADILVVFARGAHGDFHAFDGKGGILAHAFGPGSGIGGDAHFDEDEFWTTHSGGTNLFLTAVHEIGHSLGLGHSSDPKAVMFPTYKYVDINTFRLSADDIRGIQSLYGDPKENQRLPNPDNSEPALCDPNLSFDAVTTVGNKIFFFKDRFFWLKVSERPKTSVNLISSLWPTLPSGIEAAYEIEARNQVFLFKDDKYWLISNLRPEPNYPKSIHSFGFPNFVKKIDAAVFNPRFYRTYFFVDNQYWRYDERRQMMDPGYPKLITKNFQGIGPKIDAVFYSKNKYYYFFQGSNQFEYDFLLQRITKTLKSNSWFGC

Chain of MMP-8 (P22894 101-467): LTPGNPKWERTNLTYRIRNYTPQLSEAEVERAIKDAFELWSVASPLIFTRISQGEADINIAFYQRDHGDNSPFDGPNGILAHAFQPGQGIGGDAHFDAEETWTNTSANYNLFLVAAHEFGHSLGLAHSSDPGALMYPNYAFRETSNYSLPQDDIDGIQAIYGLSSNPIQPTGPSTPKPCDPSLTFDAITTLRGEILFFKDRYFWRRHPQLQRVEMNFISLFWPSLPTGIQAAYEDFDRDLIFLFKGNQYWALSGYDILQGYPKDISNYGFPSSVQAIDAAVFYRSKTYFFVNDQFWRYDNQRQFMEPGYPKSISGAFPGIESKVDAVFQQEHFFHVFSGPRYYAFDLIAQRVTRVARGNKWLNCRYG
Chain of MMP-3 (P08254 100-477, species assumed): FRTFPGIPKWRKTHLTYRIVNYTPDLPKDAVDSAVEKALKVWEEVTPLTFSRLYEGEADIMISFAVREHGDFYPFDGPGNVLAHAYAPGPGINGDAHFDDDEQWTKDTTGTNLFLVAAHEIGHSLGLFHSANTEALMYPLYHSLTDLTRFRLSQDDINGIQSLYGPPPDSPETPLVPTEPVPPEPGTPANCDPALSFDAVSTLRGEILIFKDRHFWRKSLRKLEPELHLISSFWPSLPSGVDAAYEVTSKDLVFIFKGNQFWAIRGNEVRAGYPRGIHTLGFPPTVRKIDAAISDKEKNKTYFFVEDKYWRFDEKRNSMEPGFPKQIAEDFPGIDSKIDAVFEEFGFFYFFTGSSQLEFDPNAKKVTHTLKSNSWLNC
T1 sequence (P14780 107-444 limits assumed): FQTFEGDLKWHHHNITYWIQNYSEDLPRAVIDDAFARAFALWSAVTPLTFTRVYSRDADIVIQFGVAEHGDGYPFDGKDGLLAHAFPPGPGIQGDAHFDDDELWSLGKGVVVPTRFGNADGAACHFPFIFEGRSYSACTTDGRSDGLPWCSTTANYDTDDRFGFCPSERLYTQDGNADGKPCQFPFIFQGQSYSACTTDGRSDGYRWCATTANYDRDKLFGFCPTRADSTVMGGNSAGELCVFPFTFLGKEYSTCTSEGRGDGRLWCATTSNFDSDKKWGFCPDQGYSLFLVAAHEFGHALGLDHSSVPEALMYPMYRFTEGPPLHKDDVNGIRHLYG

Structure (SMILES) | solubility [3] | k, pseudo first-order rate constants calculated with an excess of H2O2 [4] | rate constant of conversion with an excess of H2O2 [4] | solution stability in buffer [5] | stability towards KO2 [6] | other results
O=C(O)c1ccc(S(=O)(=O)On2ccccc2=O)cc1 [PZBG-1e, 4-(((2-Oxopyridin-1(2H)-yl)oxy)sulfonyl)benzoic acid] | substantial increase in solubility | – | – | – | – | pseudo-first order rate constant with an excess of H2O2 [1]: 1.3 M⁻¹ s⁻¹; cleavage in buffer [2]: ~50%
O=c1ccccn1OCc1ccc(B(O)O)cc1 [Compound B11, (4-(((2-Oxopyridin-1(2H)-yl)oxy)methyl)phenyl)boronic acid] | improved solubility | 5.9 ± 0.2 M⁻¹ s⁻¹ | 5.9 M⁻¹ s⁻¹ | – | – | –
CC1(C)OB(c2ccc(COn3ccccc3=O)cc2)OC1(C)C [Compound B19, 1-((4-(4,4,5,5-tetramethyl-1,3,2-dioxaborolan-2-yl)benzyl)oxy)pyridin-2(1H)-one] | – | – | 4.0 M⁻¹ s⁻¹ | stable | stable towards KO2 | –
Cc1occc(=O)c1OCc1ccc(B2OC(C)(C)C(C)(C)O2)cc1 [Compound B20, 2-methyl-3-((4-(4,4,5,5-tetramethyl-1,3,2-dioxaborolan-2-yl)benzyl)oxy)-4H-pyran-4-one] | – | – | 2.9 M⁻¹ s⁻¹ | stable | stable towards KO2 | –
O=C(NCc1ccc(-c2ccccc2)cc1)c1cccc(=O)n1O [1,2-HOPO-2, N-(Biphenyl-4-ylmethyl)-1-hydroxy-6-oxo-1,6-dihydropyridine-2-carboxamide] | – | – | – | – | – | IC50 [7]: ~6000 nM; IC50 (MMP-3): < 100 nM; IC50 (MMP-8): < 100 nM; IC50 (MMP-12): < 100 nM
Cc1occc(=O)c1OCc1ccc(B(O)O)cc1 [Compound B10, (4-(((2-Methyl-4-oxo-4H-pyran-3-yl)oxy)methyl)phenyl)boronic acid] | improved solubility | 3.1 ± 0.5 M⁻¹ s⁻¹ | – | – | – | –
